17 compounds from PubChem BioAssay AID200 (DTP/NCI, 2004) can be followed below.

The subject of the experiment is B6C3F1 mice, B16 melanoma ip, median survival T/C. Nature of the experiment: NCI In Vivo Anticancer Drug Screen. Data for tumor model B16 Melanoma (intraperitoneal) in B6C3F1 mice. As to conditions: endpoint: median survival time, higher = longer survival. As for the experimental part: The antitumor activity of compounds was measured in mice bearing transplantable tumors. Survival or tumor size were measured and the results are expressed as the measurement made in the treated group (T) divided by the measurement made in the vehicle treated control group (C). The tumor model used in this assay is B16 Melanoma (intraperitoneal) in B6C3F1 mice

Setting [1] is: dose: 12.5 mg/kg/injection, schedule: Q01DX009 (ip), vehicle: saline with Tween-80.
The mark [2] stands for this setting: dose: 25.0 mg/kg/injection, schedule: Q01DX009 (ip), vehicle: saline with Tween-80.
Where [3] appears, read: dose: 50.0 mg/kg/injection, schedule: Q01DX009 (ip), vehicle: saline with Tween-80.
Where [4] appears, read: dose: 6.25 mg/kg/injection, schedule: Q01DX009 (ip), vehicle: saline with Tween-80.
Setting [5] is: dose: 100.0 mg/kg/injection, schedule: Q01DX009 (ip), vehicle: saline with Tween-80.
The mark [6] stands for this setting: dose: 200.0 mg/kg/injection, schedule: Q01DX009 (ip), vehicle: saline with Tween-80.
[7] abbreviates: dose: 100.0 mg/kg/injection, schedule: Q01DX009 (ip), vehicle: Klucel (hydroxypropylcellulose) (HPC).
The mark [8] stands for this setting: dose: 200.0 mg/kg/injection, schedule: Q01DX009 (ip), vehicle: Klucel (hydroxypropylcellulose) (HPC).
[9] abbreviates: dose: 400.0 mg/kg/injection, schedule: Q01DX009 (ip), vehicle: Klucel (hydroxypropylcellulose) (HPC).
The mark [10] stands for this setting: dose: 25.0 mg/kg/injection, schedule: Q01DX009 (ip), vehicle: saline.
Setting [11] is: dose: 50.0 mg/kg/injection, schedule: Q01DX009 (ip), vehicle: saline.

SMILES strings stand for the structures. “And” between values parts separate entries of the source, which are not always exact repeats. Equal entries are not always repeated. Toxic doses and inconclusive results are not listed.

Turning to `COc1cc2cc(c1Cl)N(C)C(=O)CC(O)C1(C)OC1C(C)C1CC(O)(NC(=O)O1)C(OC)/C=C/C=C(C)C2OC` (stereo not given), the T/C was 105 % of control (dose: 4.0 micrograms/kg/injection, schedule: Q01DX009 (ip), vehicle: distilled water + alcohol); 96 % of control (dose: 8.0 micrograms/kg/injection, schedule: Q01DX009 (ip), vehicle: distilled water + alcohol); 102 % of control (dose: 16.0 micrograms/kg/injection, schedule: Q01DX009 (ip), vehicle: distilled water + alcohol); 88 % of control (dose: 32.0 micrograms/kg/injection, schedule: Q01DX009 (ip), vehicle: distilled water + alcohol).

Consider `O=S(=O)(N=N/C=C1\C=CC=CN1O)c1cccs1`, for which the T/C runs as follows: under setting [1], 101 % of control; under setting [2], 104 % of control; under setting [3], 114 % of control.

For `Clc1ccccc1N1CCN(CCCN2CCN(c3ccccc3Cl)CC2)CC1`, the T/C was 100 % of control (dose: 3.13 mg/kg/injection, schedule: Q01DX009 (ip), vehicle: saline with Tween-80); 95 % of control under setting [4]; 94 % of control under setting [1]; 99 % of control under setting [2].

Turning to `Nc1ccc2ccc(NS(=O)(=O)N3CCCCC3)cc2c1`, the T/C is, setting by setting: under setting [2], 110 % of control; under setting [3], 98 % of control; under setting [5], 111 % of control; under setting [6], 107 % of control.

With `N[C@@H](Cc1ccc(N(CCCl)CCCl)cc1)C(=O)O`, the T/C was 111 % of control and 124 % of control (dose: 0.25 mg/kg/injection, schedule: Q01DX009 (ip), vehicle: saline); 124 % of control (dose: 0.25 mg/kg/injection, schedule: Q01DX009 (ip), vehicle: water); 183 % of control (dose: 1.0 mg/kg/injection, schedule: Q01DX009 (ip), vehicle: water); 176 % of control (dose: 2.0 mg/kg/injection, schedule: Q01DX009 (ip), vehicle: saline with Tween-80); 194 % of control (dose: 2.0 mg/kg/injection, schedule: Q01DX009 (ip), vehicle: water); 164 % of control (dose: 2.0 mg/kg/injection, schedule: Q04DX003 (ip), vehicle: saline). Moreover, the T/C by setting is: (dose: 2.5 mg/kg/injection, schedule: Q04DX003 (ip), vehicle: saline) 182 % of control; (dose: 4.0 mg/kg/injection, schedule: Q01DX009 (ip), vehicle: saline with Tween-80) 387 % of control; (dose: 4.0 mg/kg/injection, schedule: Q04DX003 (ip), vehicle: saline) 204 % of control; (dose: 5.0 mg/kg/injection, schedule: Q04DX003 (ip), vehicle: saline) 217 % of control; (dose: 7.31 mg/kg/injection, schedule: Q01DX001 (ip), vehicle: other) 172 % of control; (dose: 7.5 mg/kg/injection, schedule: Q04DX003 (ip), vehicle: saline) 230 % of control and 240 % of control. The T/C by setting is: (dose: 9.75 mg/kg/injection, schedule: Q01DX001 (ip), vehicle: other) 157 % of control; (dose: 10.0 mg/kg/injection, schedule: Q04DX003 (ip), vehicle: saline) 79 % of control; (dose: 13.0 mg/kg/injection, schedule: Q01DX001 (ip), vehicle: other) 173 % of control.

In the case of `CCCOC(=O)c1nc(N(CC2CCCCC2)C(=O)NC)sc1/N=C/c1ccccc1`, the T/C (dose: 9.0 mg/kg/injection, schedule: Q01DX009 (ip), vehicle: saline with Tween-80) is 96 % of control; the T/C (dose: 18.0 mg/kg/injection, schedule: Q01DX009 (ip), vehicle: saline with Tween-80) was 86 % of control; the T/C (dose: 36.0 mg/kg/injection, schedule: Q01DX009 (ip), vehicle: saline with Tween-80) was 86 % of control.

For `O=c1[nH]cnc2n[nH]nc12`, the T/C (dose: 12.5 mg/kg/injection, schedule: Q01DX009 (ip), vehicle: Klucel (hydroxypropylcellulose) (HPC)) is 107 % of control; the T/C (dose: 25.0 mg/kg/injection, schedule: Q01DX009 (ip), vehicle: Klucel (hydroxypropylcellulose) (HPC)) is 97 % of control; the T/C (dose: 50.0 mg/kg/injection, schedule: Q01DX009 (ip), vehicle: Klucel (hydroxypropylcellulose) (HPC)) is 92 % of control; the T/C under setting [7] was 90 % of control; the T/C under setting [8] was 97 % of control; the T/C under setting [9] is 90 % of control.

Consider `COc1ccc(C(C)c2cc3c(cc2OC)OCO3)cc1` (stereo not given), for which the T/C reads like this: under setting [2], 99 % of control; under setting [3], 99 % of control; under setting [5], 100 % of control; under setting [6], 104 % of control.

For the compound `O=C(O)CNC(=O)OCC1c2ccccc2-c2ccccc21`, the T/C reads like this: under setting [7], 93 % of control; under setting [8], 87 % of control; under setting [9], 86 % of control.

Consider `Cc1ccc(S(=O)(=O)NC(=O)OC23COCN2COC3)cc1`, for which the T/C by setting is: under setting [1], 112 % of control and 113 % of control; under setting [2], 108 % of control and 106 % of control; under setting [3], 118 % of control; under setting [5], 104 % of control; under setting [6], 105 % of control; (dose: 400.0 mg/kg/injection, schedule: Q01DX009 (ip), vehicle: saline with Tween-80) 111 % of control and 122 % of control.

For the compound `CC(=O)NCCSSCCCCS(=O)O`, the T/C is 96 % of control under setting [10]; 103 % of control under setting [11]; 98 % of control (dose: 100.0 mg/kg/injection, schedule: Q01DX009 (ip), vehicle: saline); 111 % of control (dose: 200.0 mg/kg/injection, schedule: Q01DX009 (ip), vehicle: saline); 96 % of control (dose: 400.0 mg/kg/injection, schedule: Q01DX009 (ip), vehicle: saline).

For the compound `NC1=NC(O)C=C1` (stereo not given), the T/C reads like this: (dose: 3.12 mg/kg/injection, schedule: Q01DX009 (ip), vehicle: saline + alcohol) 108 % of control; (dose: 6.25 mg/kg/injection, schedule: Q01DX009 (ip), vehicle: saline + alcohol) 108 % of control; (dose: 12.5 mg/kg/injection, schedule: Q01DX009 (ip), vehicle: saline + alcohol) 100 % of control; (dose: 25.0 mg/kg/injection, schedule: Q01DX009 (ip), vehicle: saline + alcohol) 104 % of control.

In the case of `O=c1ccc(N=Nc2ccccc2)ccc1Cl`, the T/C (dose: 0.25 mg/kg/injection, schedule: Q01DX009 (ip), vehicle: Klucel (hydroxypropylcellulose) (HPC)) was 98 % of control; the T/C (dose: 0.5 mg/kg/injection, schedule: Q01DX009 (ip), vehicle: Klucel (hydroxypropylcellulose) (HPC)) is 93 % of control; the T/C (dose: 1.0 mg/kg/injection, schedule: Q01DX009 (ip), vehicle: Klucel (hydroxypropylcellulose) (HPC)) was 100 % of control.

Turning to `CCN(Cc1ccc(Cl)c(Cl)c1)c1ccc2nc(N)nc(N)c2c1C`, the T/C was 112 % of control and 123 % of control (dose: 3.12 mg/kg/injection, schedule: Q01DX009 (ip), vehicle: water); 120 % of control (dose: 3.13 mg/kg/injection, schedule: Q01DX009 (ip), vehicle: distilled water + Tween-80); 124 % of control (dose: 6.25 mg/kg/injection, schedule: Q01DX009 (ip), vehicle: water); 92 % of control (dose: 12.5 mg/kg/injection, schedule: Q01DX009 (ip), vehicle: water); 150 % of control (dose: 25.0 mg/kg/injection, schedule: Q01DX009 (ip), vehicle: water).

For `c1ccc(Cc2ccccc2)cc1`, the T/C by setting is: under setting [3], 90 % of control; under setting [5], 90 % of control; under setting [6], 95 % of control.

Regarding `CC1=NN(c2ccccc2)C(=O)C1N=Nc1ccccc1S(=O)(=O)O` (stereo not given), the T/C runs as follows: (dose: 12.5 mg/kg/injection, schedule: Q01DX009 (ip), vehicle: saline) 104 % of control; under setting [10], 94 % of control; under setting [11], 96 % of control.

Regarding `C=CC(=O)N1CN(C(=O)C=C)CN(C(=O)C=C)C1`, the T/C by setting is: (dose: 0.78 mg/kg/injection, schedule: Q01DX009 (ip), vehicle: saline with Tween-80) 99 % of control; (dose: 1.56 mg/kg/injection, schedule: Q01DX009 (ip), vehicle: saline with Tween-80) 100 % of control; (dose: 3.12 mg/kg/injection, schedule: Q01DX009 (ip), vehicle: saline with Tween-80) 100 % of control; under setting [4], 106 % of control; under setting [1], 86 % of control.
